Results: patent US9353107B2 (Aurigene Discovery Technologies Limited, priority 2012, dated 2016)

Target: T1, recombinant human ALK enzyme (ALK WT) (Homo sapiens, UniProt Q9UM73)
T1 construct: purchased Carna Biosciences 08-518
Test: ALK WT cell free enzymatic assay (TR-FRET)
Assay type: biochemical
Settings: 1 μM ATP; for IC50: 10 point dose response; for inhibition at 0.1 µM: compound at 100 nM; for inhibition at 0.1 µM / inhibition at 1 µM: 30 min pre-incubation; for inhibition at 1 µM: compound at 1 μM
Outline: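 Recombinant human ALK with 40 nM Ultra Light Poly GT, 1 μM ATP and Eu anti-phosphotyrosine antibody, 1% DMSO, pH 7.1 HEPES; 30 min enzyme-compound pre-incubation, then 30 min reaction. TR-FRET 665/615 ratio; percent inhibition at 100 nM and 1 μM, IC50 from 10-point sigmoidal fit.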

T1 sequence (Q9UM73 1058-1620 limits assumed): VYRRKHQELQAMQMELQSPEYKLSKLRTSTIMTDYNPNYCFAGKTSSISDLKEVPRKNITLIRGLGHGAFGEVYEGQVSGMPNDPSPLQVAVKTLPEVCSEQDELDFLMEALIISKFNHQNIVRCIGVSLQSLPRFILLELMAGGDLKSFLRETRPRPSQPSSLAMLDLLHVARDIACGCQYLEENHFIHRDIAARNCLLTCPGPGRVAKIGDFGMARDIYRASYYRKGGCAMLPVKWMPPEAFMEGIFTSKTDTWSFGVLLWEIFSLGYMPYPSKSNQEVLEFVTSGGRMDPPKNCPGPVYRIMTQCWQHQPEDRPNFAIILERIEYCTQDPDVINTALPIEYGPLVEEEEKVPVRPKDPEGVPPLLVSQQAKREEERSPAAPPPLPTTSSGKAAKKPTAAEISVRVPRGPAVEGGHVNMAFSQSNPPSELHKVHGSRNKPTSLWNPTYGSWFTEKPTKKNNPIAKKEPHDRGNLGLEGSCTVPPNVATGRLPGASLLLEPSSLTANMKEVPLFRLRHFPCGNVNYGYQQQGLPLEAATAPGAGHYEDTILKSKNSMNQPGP

| IC50 [nM] | inhibition at 0.1 µM [%] | inhibition at 1 µM [%] | Structure (SMILES) |
| --- | --- | --- | --- |
| < 50 | 98 | 100 | Fc1cccc(Cn2cc(-c3c[nH]c4ncc(-c5ccc(C6CCNCC6)c(F)c5)cc34)cn2)c1 [Example 84, 5-(3-fluoro-4-(piperidin-4-yl)phenyl)-3-(1-(3-fluorobenzyl)-1H-pyrazol-4-yl)-1H-pyrrolo[2,3-b]pyridine] |
| < 50 | 95 | 100 | NC(=O)CN1CCN(c2ccc(-c3cnc4[nH]cc(-c5cnn(Cc6cccc(F)c6)c5)c4c3)cc2)CC1 [Example 103, 2-(4-(4-(3-(1-(3-fluorobenzyl)-1H-pyrazol-4-yl)-1H-pyrrolo[2,3-b]pyridin-5-yl)phenyl)piperazin-1-yl)acetamide] |
| < 50 | 91 | 100 | Fc1cccc(Cn2cc(-c3c[nH]c4ncc(-c5ccc(C6CCNCC6)nc5)cc34)cn2)c1 [Example 159, 3-(1-(3-fluorobenzyl)-1H-pyrazol-4-yl)-5-(6-(piperidin-4-yl)pyridin-3-yl)-1H-pyrrolo[2,3-b]pyridine] |
| < 50 | 86 | 93 | Cc1cccc(Cn2cc(-c3c[nH]c4ncc(-c5ccc(N6CCN(C[C@H](C)O)CC6)cc5)cc34)cn2)c1 [Example 119, (S)-1-(4-(4-(3-(1-(3-methylbenzyl)-1H-pyrazol-4-yl)-1H-pyrrolo[2,3-b]pyridin-5-yl)phenyl)piperazin-1-yl)propan-2-ol] |
| 50 to 250 | 83 | 99 | c1ccc(CCn2cc(-c3c[nH]c4ncc(-c5cccc(NC6CCNCC6)c5)cc34)cn2)cc1 [Example 95, N-(3-(3-(1-phenethyl-1H-pyrazol-4-yl)-1H-pyrrolo[2,3-b]pyridin-5-yl)phenyl)piperidin-4-amine] |
| < 50 | 99 | 100 | Cc1c(-c2c[nH]c3ncc(-c4ccc(C5CCNCC5)cc4)cc23)cnn1Cc1cccc(F)c1 [Example 91, 3-(1-(3-fluorobenzyl)-5-methyl-1H-pyrazol-4-yl)-5-(4-(piperidin-4-yl)phenyl)-1H-pyrrolo[2,3-b]pyridine] |
| < 50 | 80 | 95 | c1ccc(CCn2cc(-c3c[nH]c4ncc(-c5ccc(N6CCNCC6)nc5)cc34)cn2)cc1 [Example 140, 3-(1-phenethyl-1H-pyrazol-4-yl)-5-(6-(piperazin-1-yl)pyridin-3-yl)-1H-pyrrolo[2,3-b]pyridine] |
|  | 80 | 86 | c1ccc(CCn2cc(-c3c[nH]c4ncc(-c5ccc(N6CCNCC6)cc5)cc34)cn2)cc1 [Example 185, 3-(1-phenethyl-1H-pyrazol-4-yl)-5-(4-(piperazin-1-yl)phenyl)-1H-pyrrolo[2,3-b]pyridine] |
| < 50 | 95 | 97 | OCCN1CCN(c2ccc(-c3cnc4[nH]cc(-c5cnn(Cc6cccc(F)c6)c5)c4c3)cc2)CC1 [Example 126, 2-(4-(4-(3-(1-(3-fluorobenzyl)-1H-pyrazol-4-yl)-1H-pyrrolo[2,3-b]pyridin-5-yl)phenyl)piperazin-1-yl)ethanol] |
| < 50 | 96 | 100 | Cc1nn(Cc2cccc(F)c2)c(C)c1-c1c[nH]c2ncc(-c3ccc(C4CCNCC4)c(F)c3)cc12 [Example 175, 5-(3-fluoro-4-(piperidin-4-yl)phenyl)-3-(1-(3-fluorobenzyl)-3,5-dimethyl-1H-pyrazol-4-yl)-1H-pyrrolo[2,3-b]pyridine] |
|  | 94 | 100 | OCCN1CCN(c2ccc(-c3cnc4[nH]cc(-c5cnn(Cc6cccc(F)c6)c5)c4c3)cn2)CC1 [Example 142, 2-(4-(5-(3-(1-(3-fluorobenzyl)-1H-pyrazol-4-yl)-1H-pyrrolo[2,3-b]pyridin-5-yl)pyridin-2-yl)piperazin-1-yl)ethanol] |
| < 50 | 85 | 94 | CS(=O)(=O)N1CCN(c2ccc(-c3cnc4[nH]cc(-c5cnn(Cc6cccc(F)c6)c5)c4c3)cn2)CC1 [Example 158, 3-(1-(3-fluorobenzyl)-1H-pyrazol-4-yl)-5-(6-(4-(methylsulfonyl)piperazin-1-yl)pyridin-3-yl)-1H-pyrrolo[2,3-b]pyridine] |
| < 50 | 96 | 97 | CN(C)CC(=O)N1CCN(c2ccc(-c3cnc4[nH]cc(-c5cnn(Cc6cccc(F)c6)c5)c4c3)cc2)CC1 [Example 127, 2-(dimethylamino)-1-(4-(4-(3-(1-(3-fluorobenzyl)-1H-pyrazol-4-yl)-1H-pyrrolo[2,3-b]pyridin-5-yl)phenyl)piperazin-1-yl)ethanone] |
| < 50 | 99 | 100 | Fc1cc(F)cc(Cn2cc(-c3c[nH]c4ncc(-c5ccc(C6CCNCC6)c(F)c5)cc34)cn2)c1 [Example 169, 3-(1-(3,5-difluorobenzyl)-1H-pyrazol-4-yl)-5-(3-fluoro-4-(piperidin-4-yl)phenyl)-1H-pyrrolo[2,3-b]pyridine] |
| < 50 | 93 | 100 | Cc1nn(Cc2cccc(F)c2)c(C)c1-c1c[nH]c2ncc(-c3ccc(N4CCN(CCN(C)C)CC4)cc3)cc12 [Example 57, 2-(4-(4-(3-(1-(3-fluorobenzyl)-3,5-dimethyl-1H-pyrazol-4-yl)-1H-pyrrolo[2,3-b]pyridin-5-yl)phenyl)piperazin-1-yl)-N,N-dimethylethanamine] |
| < 50 | 90 | 100 | Cc1nn(Cc2cccc(F)c2)c(C)c1-c1c[nH]c2ncc(-c3ccc(N4CCN(CCO)CC4)cc3)cc12 [Example 41, 2-(4-(4-(3-(1-(3-fluorobenzyl)-3,5-dimethyl-1H-pyrazol-4-yl)-1H-pyrrolo[2,3-b]pyridin-5-yl)phenyl)piperazin-1-yl)ethanol] |
| < 50 |  | 95 | COc1ccc(-c2cnc3[nH]cc(-c4c(C)nn(Cc5cccc(F)c5)c4C)c3c2)cc1NS(C)(=O)=O [Example 14, N-(5-(3-(1-(3-fluorobenzyl)-3,5-dimethyl-1H-pyrazol-4-yl)-1H-pyrrolo[2,3-b]pyridin-5-yl)-2-methoxyphenyl)methanesulfonamide] |
| < 50 | 96 | 98 | COc1cc(-c2cnc3[nH]cc(-c4cnn(Cc5cccc(F)c5)c4)c3c2)ccc1C1CCNCC1 [Example 86, 3-(1-(3-fluorobenzyl)-1H-pyrazol-4-yl)-5-(3-methoxy-4-(piperidin-4-yl)phenyl)-1H-pyrrolo[2,3-b]pyridine] |
|  | 60 | 98 | C[C@H](O)CN1CCN(c2ccc(-c3cnc4[nH]cc(-c5cnn(CCc6ccccc6)c5)c4c3)cn2)CC1 [Example 143, (S)-1-(4-(5-(3-(1-phenethyl-1H-pyrazol-4-yl)-1H-pyrrolo[2,3-b]pyridin-5-yl)pyridin-2-yl)piperazin-1-yl)propan-2-ol] |
| < 50 | 95 | 100 | C[C@H](O)CN1CCN(c2ccc(-c3cnc4[nH]cc(-c5cnn(Cc6cc(F)cc(F)c6)c5)c4c3)cn2)CC1 [Example 135, (S)-1-(4-(5-(3-(1-(3,5-difluorobenzyl)-1H-pyrazol-4-yl)-1H-pyrrolo[2,3-b]pyridin-5-yl)pyridin-2-yl)piperazin-1-yl)propan-2-ol] |
| > 250 |  | 65 | COc1ccc(Cn2cc(-c3c[nH]c4ncc(-c5cccc(NS(C)(=O)=O)c5)cc34)cn2)cc1 [Example 3, N-(3-(3-(1-(4-methoxybenzyl)-1H-pyrazol-4-yl)-1H-pyrrolo[2,3-b]pyridin-5-yl)phenyl)n methane sulfonamide] |
| < 50 | 96 | 100 | COc1cc(-c2cnc3[nH]cc(-c4c(C)nn(Cc5cc(F)cc(F)c5)c4C)c3c2)cnc1N [Example 177, 5-(3-(1-(3,5-difluorobenzyl)-3,5-dimethyl-1H-pyrazol-4-yl)-1H-pyrrolo[2,3-b]pyridin-5-yl)-3-methoxypyridin-2-amine] |
| < 50 | 86 | 97 | Cc1nn(Cc2cccc(F)c2)c(C)c1-c1c[nH]c2ncc(-c3ccc(N4CCN(C[C@H](C)O)CC4)nc3)cc12 [Example 161, (2S)-1-(4-(5-(3-(1-(3-fluorobenzyl)-3,5-dimethyl-1H-pyrazol-4-yl)-1H-pyrrolo[2,3-b]pyridin-5-yl)pyridin-2-yl)piperazin-1-yl)propan-2-ol] |
| 50 to 250 | 51 | 92 | COc1ccc(-c2cnc3[nH]cc(-c4cnn(CCc5ccccc5F)c4)c3c2)cc1NS(C)(=O)=O [Example 74, N-(5-(3-(1-(2-fluorophenethyl)-1H-pyrazol-4-yl)-1H-pyrrolo[2,3-b]pyridin-5-yl)-2-methoxyphenyl)methanesulfonamide] |
| 50 to 250 | 65 | 93 | Cc1nn(Cc2cc(F)cc(F)c2)c(C)c1-c1c[nH]c2ncc(-c3ccc(F)c(NS(C)(=O)=O)c3)cc12 [Example 80, N-(5-(3-(1-(3,5-difluorobenzyl)-3,5-dimethyl-1H-pyrazol-4-yl)-1H-pyrrolo[2,3-b]pyridin-5-yl)-2-fluorophenyl)methanesulfonamide] |
